{
  "source": "paper PMC9609178",
  "about": "“Tumor-Specific Monomethyl Auristatin E (MMAE) Prodrug Nanoparticles for Safe and Effective Chemotherapy” (Pharmaceutics, 2022)",
  "key": {"[1]": {"tested_on": "4T1 cells", "assay": "Tubulin formation in 4T1 cells (anti-tubulin antibody staining)", "assay_type": "cell-based, murine", "conditions": "after 24 h of treatment; Cy5.5 anti-tubulin antibody", "procedure": "Then, cells were fixed with 4% paraformaldehyde fixative for 25 min, and stained with DAPI solution (Invitrogen, Carlsbad, CA, USA) for 15 min in the dark. Finally, the 4T1 cells were observed using a confocal laser scanning microscope (CLSM) equipped with 405 diode (405 nm) and HeNe-Red (633 nm) lasers (Leica, Wetzlar, Germany)."}, "[2]": {"tested_on": "4T1 cells", "assay": "Cytotoxicity, CCK-8 assay, 4T1 cells", "assay_type": "cell-based, murine", "conditions": "24 h incubation; CCK-8, 450 nm; read-out: IC50, cell viability, 4T1 cells", "procedure": "(§1) First, […] 4T1 or H9C2 cells were seeded in the 96-well cell culture plates. […] Finally, the cell viability of each cell was measured using a microplate reader with 450 nm of wavelength (VERSAmaxTM; Molecular Devices Corp., San Jose, CA, USA)."}, "[3]": {"tested_on": "H9C2 cells", "assay": "Cytotoxicity, CCK-8 assay, H9C2 cells", "assay_type": "cell-based, rat", "conditions": "24 h incubation; CCK-8, 450 nm; read-out: IC50, cell viability, H9C2 cells", "procedure": "as §1"}, "[4]": {"tested_on": "4T1 tumor", "assay": "Antitumor efficacy in 4T1 breast tumor models", "assay_type": "in vivo, mice", "procedure": "(§2) The antitumor efficacy was evaluated in the breast tumor models. The breast tumor models were prepared via subcutaneous injection of 1 × 10^6 4T1 cells. […] The mice were treated once every three days, and tumor volumes were calculated as the smallest diameter^2 × largest diameter × 0.53. The mice with a tumor volume of 2000 mm^3 or larger were counted as dead. […] The major organs were collected from mice on day 5 after treatments, and structural abnormality in the organ tissues was assessed by staining with H&E."}, "[5]": {"assay": "Toxicity study in 4T1 tumor-bearing mice (histology, hematology, body weight, survival)", "assay_type": "in vivo", "procedure": "as §2"}, "[6]": {"conditions": "cited from earlier work", "from_the_text": "Monomethyl auristatin E (MMAE), a synthetic analog of the natural product dolastatin 10, is a potent antimitotic agent that inhibits tubulin polymerization."}},
  "note": "Square brackets hold non-standard residues; d marks the D form. Peptide text beside a SMILES is read from it. * marks the point of attachment. Dolaproine = CO[C@@H]([C@@H]1CCCN1)[C@@H](C)C(=O)O; Dil = CC[C@H](C)[C@H](NC)[C@@H](CC(=O)O)OC; X1 = C[C@@H](N*)[C@@H](O)c1ccccc1; NMeV = CN[C@H](C(=O)O)C(C)C",
  "data": [
    {"molecule": "CC[C@H](C)[C@@H]([C@@H](CC(=O)N1CCC[C@H]1[C@H](OC)[C@@H](C)C(=O)N[C@H](C)[C@@H](O)c1ccccc1)OC)N(C)C(=O)[C@@H](NC(=O)[C@@H](NC)C(C)C)C(C)C", "note": "[MMAE, Monomethyl auristatin E] (H-[NMeV]V[Dil][Dolaproine]-X1)", "values": [
      {"measurement": "Tubulin formation in 4T1 cells compared to naive cells", "setting": "[1]", "value": "significantly inhibited"},
      {"measurement": "IC50", "setting": "[2]", "value": 0.92, "unit": "nM"},
      {"measurement": "IC50", "setting": "[3]", "value": 1.17, "unit": "nM"},
      {"measurement": "Tumor growth during monitoring for 15 days", "setting": "[4]; 0.1 mg/kg MMAE once every three days, 15 days", "value": "rapid tumor growth compared to FRRG-MMAE-treated mice"},
      {"measurement": "Tumor volume on day 5 after treatment", "setting": "[4]; 0.2 mg/kg based on MMAE contents, once every three days, day 5", "value": "154.73 ± 31.63", "unit": "mm^3"},
      {"measurement": "Body weight", "setting": "[5]; 0.2 mg/kg MMAE equivalent once every three days", "value": "significant body weight loss"},
      {"measurement": "Mice survival", "setting": "[5]; 0.2 mg/kg MMAE equivalent once every three days, 15 days", "value": "all the mice were dead within five days"},
      {"measurement": "Hematological parameters (ALB, AST, ALT)", "setting": "[5]; 0.2 mg/kg MMAE equivalent, after five days of treatment", "value": "significant changes"},
      {"measurement": "Structural abnormalities in normal organs (liver, lung, spleen, kidney and heart), H&E", "setting": "[5]; 0.2 mg/kg once every three days, after five days of treatment", "value": "severe systemic toxicity"},
      {"measurement": "Antitumor efficacy, times more potent than doxorubicin", "setting": "[6]", "value": "100–1000 times"}
    ]}
  ]
}
